From ChEMBL document CHEMBL5725403, “Compounds and pharmaceutical compositions thereof for the treatment of inflammatory disorders” (2017) come the findings set out here.

Some results are limits rather than exact numbers.

This assay concerns the target Autotaxin (Homo sapiens, UniProt Q13822). The assay is described as follows: Human ENPP2 (hENPP2) Assay: Compound IC50 values are determined in a hENPP2 (UniProtKB/SwissProt Sequence ref Q13822) biochemical assay using LPC as substrate. […] The enzyme is diluted in 50 mM Tris-HCl pH 8.5, 500 mM NaCl, 5 mM KCl, 10 mM CaCl2, 0.1% fatty acid free BSA in a total volume of 10 μL. the reaction is started by the addition of 10 μL of 150 μM LPC (palmitoyl 16:0) diluted in the same buffer as described above and the mixture is incubated at 37° C. for 30 min. The reaction is terminated and choline quantified by the addition of a 25 μL of a mixture containing 0.6 U/mL of choline oxidase, 0.6 U/mL of peroxydase, 1.8 mM TOOS, 1.2 mM amino-antipyrine, 20 mM EGTA (stop-developer solution) diluted in the buffer described above. […] is read on the Envision after an incubation of 30 min at room temperature (Excitation 555 nm, excitation light=70%).

The term IC50 denotes the concentration needed to halve the response being measured. On to `CCc1nc2ccc(C3CCN(S(C)(=O)=O)CC3)cn2c1N(C)c1nc(-c2ccc(F)cc2)c(Br)s1`, for which the IC50 was more than 1 µM.
